Assay results published in patent US20210017607A1, “Methods of Predicting Responsiveness to Cancer Therapies” (The University of Chicago, priority 2019, published 2021).

Legend:
[1] = test system: Myc-CAP (STING^lo) tumors; assay: Myc-CAP syngeneic tumor growth; type: in vivo, mouse; settings: immunocompetent syngeneic mice
Description: FIGS. 25A and 25B. […] (25A-25B) Myc-CAP (STING^lo) tumor-bearing syngeneic mice were treated with the indicated drug(s) until untreated tumors reached approx. 2500 mm^3. Tumor volume curves for duration of treatment are shown.
FIGS. 26A-26D. […] Immunodeficient athymic nude (26A) and NOD-SCID (26B) mice were engrafted with Myc-CAP (STING^lo) tumors and treated with the indicated drug(s) until untreated tumors reached approx. 2000 mm^3. Tumor volume curves for duration of treatment are shown. For 26A-26B, n=3-4 mice per group. (26C-26D) Single-cell suspensions were generated from harvested tumors and analyzed by flow cytometry for the indicated immune cell populations and their activation states. Data are represented relative to CD45+ immune cells. For 26C-26D, n=3-5 animals per treatment group from 2 independent experiments. Significance/p-values were calculated by […].
FIGS. 29A-29M. […] Myc-CAP cancer cells were treated with the indicated drugs singly or in combination for 36 hours. (29A) Cells were stained with anti-mouse specific p-γH2AX antibody and a fluorescently labeled secondary antibody for determination of DNA DSBs, which were quantified by confocal microscopy. (29B) Protein extracts from cells in 29A were analyzed for the indicated pharmacodynamic biomarkers by western blotting; (29C) Annexin V-PI staining was done to assess frequency of live cells (Annexin V^− PI^−) following drug treatment. (29D) Ultracentrifugation was utilized to purify microvesicles (MVs) from supernatants in treatment groups in (29A) and associated DNA DSBs was quantified by Nanodrop®. Independent experiments n=2. (29E) Ultracentrifugation was utilized to purify MVs from supernatants in indicated treatment groups in FIG. 17A, and associated DNA DSBs were quantified by Nanodrop®; n=2 independent experiments. (29F) Syngeneic mice were engrafted with Myc-CAP (STING^lo) cells, and tumors were harvested when the tumor volume reached 400 mm^3. Single cell suspensions of the tumors were treated with the indicated drug(s), in the presence or absence of GW4869 (MV biogenesis inhibitor). (29G) Bone marrow derived macrophage (BMDMs) were co-cultured for 30 hours with supernatants (−/+ exogenous 50 units of DNase I pre-treatment for 30 minutes) from Myc-CAP cells that were treated with the indicated drug(s) for 36 hours. (29H) cGAMP (10 μg/mL) was pre-incubated with 10 units of DNAse I or mock control for 30 minutes and then added to BMDMs for 30 hours. (29I-29L) STING^+/+/STING^−/− BMDMs were co-cultured for 36 hours with supernatants from Myc-CAP and B6-Myc cancer cells that were treated with the indicated drug(s) for 36 hours. Supernatants were collected from 29F-29L at the end of treatment and analyzed for IFNβ1 by ELISA. (29M) Myc-CAP (STING^lo) tumor-bearing mice were treated with the indicated drug(s) until tumors first reached approx. 2500 mm^3. For the degerelix/rucaparib/buparlisib combination, additional cohorts of mice underwent concomitant treatment with STING antagonist H-151 or GW4869. Tumor volume was recorded daily for duration of experiment. For in vitro experiments, n=2 independent experiments and for in vivo experiments n=3-4 animals /group.

Myc-CAP (STING^lo) cells = assay: p-γH2AX foci (DNA DSBs) by confocal microscopy; type: cell-based, mouse
Text: FIGS. 29A-29M. PARPi alone induces DNA DSBs, but not apoptosis even in combination with PI3Ki in Myc-CAP (STING^lo) cancer cells; PARPi/PI3Ki combination induces intracellular DNA DSBs and proportionate release of MV surface-associated DNA DSBs from B6-Myc (STINGhi) cancer cells without affecting cellular viability; PARPi/PI3K treatment activates tumor-cell extrinsic cGAS/STING pathway within TAMs in vivo via MV surface-associated DNA DSBs released from tumor cells. Myc-CAP cancer cells were treated with the indicated drugs singly or in combination for 36 hours. (29A) Cells were stained with anti-mouse specific p-γH2AX antibody and a fluorescently labeled secondary antibody for determination of DNA DSBs, which were quantified by confocal microscopy. (29B) Protein extracts from cells in 29A were analyzed for the indicated pharmacodynamic biomarkers by western blotting; (29C) Annexin V-PI staining was done to assess frequency of live cells (Annexin V^− PI^−) following drug treatment. (29D) Ultracentrifugation was utilized to purify microvesicles (MVs) from supernatants in treatment groups in (29A) and associated DNA DSBs was quantified by Nanodrop®. Independent experiments n=2. (29E) Ultracentrifugation was utilized to purify MVs from supernatants in indicated treatment groups in FIG. 17A, and associated DNA DSBs were quantified by Nanodrop®; n=2 independent experiments. […]

SMILES | tumor growth response [1] | DNA damage on addition to rucaparib, relative to rucaparib alone (Myc-CAP (STING^lo) cells) | DNA DSBs (number of p-γH2AX foci) (Myc-CAP (STING^lo) cells; 36 hours)
Nc1cc(C(F)(F)F)c(-c2cc(N3CCOCC3)nc(N3CCOCC3)n2)cn1 [buparlisib] | not observed | did not further increase DNA damage | 
CNCc1ccc(-c2[nH]c3cc(F)cc4c3c2CCNC4=O)cc1 [rucaparib] | not observed |  | increase in DNA DSBs
